Experimental findings from patent US20260201008A1, “SECRETIN-DERIVED GLP1R SELECTIVE AGONISTS” (GUBRA A/S, priority 2023, published 2026) are described below.

Numbered stars: 1 amine (or outer) side, 2 acyl side, 3 side chain; on linkers, the order of the positions; unused ones are H or OH. Square brackets hold non-standard residues; d marks the D form. Side chains are listed from the residue outwards. Peptide text beside a SMILES is read from it. * marks the point of attachment. C20 diacid = O=C(O)CCCCCCCCCCCCCCCCCCC(=O)*; γGlu = O=C(O)[C@H](CCC(=O)[*:2])N[*:1]; AEEA = NCCOCCOCC(=O)O; Aib = CC(C)(N)C(=O)O

The nature of series [1]: Turbidity of crude library peptides (absorbance at 600 nm). The format is physicochemical. The following applies: Physical stability of peptides. Put shortly:
(§1)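 Values reflect mean ThT emission (ex 450, em 480 nm) over 72 h at 40° C, read every 10 min after 5 min shaking at 700 rpm, plus a single initial absorbance at 600 nm for turbidity. Peptides were at 267 μM, pH 4.0 acetate or pH 7.0 phosphate (50 mM), with 4 μM ThT.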

Series [2] is described as follows: Fibril formation of crude library peptides (Thioflavin T). The format is physicochemical. The following applies: Physical stability of peptides. Also on record: key: average ThT fluorescence emission at 480 nm (ex 450 nm), raw units. The method, boiled down:
as §1

In another series the target is GLP1R (Homo sapiens, UniProt P43220). Kind of series: hGLP1R potency, cAMP accumulation in CHO-K1 cells stably overexpressing hGLP1R. The format is cell-based. The following applies: for Selectivity: SCTR EC50/GLP1R EC50 ratio; for EC50: cAMP accumulation, CHO-K1 cells overexpressing hGLP1R, read-out: pEC50 hGLPR1 (converted). Further details: host or cells: CHO-K1. The method, boiled down: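 Potency reflects cAMP accumulation measured by time-resolved fluorescence energy transfer after a 30 min room-temperature stimulation in IBMX-containing (0.5 mM) DPBS with casein. Purified peptides were tested in duplicate over eleven threefold dilutions, and EC50 was obtained from sigmoid concentration-response fitting.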

For a further series, the target named is SCTR (Homo sapiens, UniProt P47872). As to the kind of experiment: hSCTR potency, cAMP accumulation in CHO-K1 cells stably overexpressing hSCTR. Also on record: alternatively Euroscreen ES-712-AF; FAST-0161L; host or cells: CHO-K1. The format is cell-based. As to conditions: cAMP accumulation, CHO-K1 cells overexpressing hSCTR; read-out: pEC50 hSCTR (converted). The method, boiled down:
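Potency reflects cAMP accumulation after 30 min agonist exposure at room temperature in hSCTR-expressing CHO-K1 cells, with 0.5 mM IBMX present to block phosphodiesterase. EC50 was derived by nonlinear regression.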

SCTR, sequence (P47872 23-440): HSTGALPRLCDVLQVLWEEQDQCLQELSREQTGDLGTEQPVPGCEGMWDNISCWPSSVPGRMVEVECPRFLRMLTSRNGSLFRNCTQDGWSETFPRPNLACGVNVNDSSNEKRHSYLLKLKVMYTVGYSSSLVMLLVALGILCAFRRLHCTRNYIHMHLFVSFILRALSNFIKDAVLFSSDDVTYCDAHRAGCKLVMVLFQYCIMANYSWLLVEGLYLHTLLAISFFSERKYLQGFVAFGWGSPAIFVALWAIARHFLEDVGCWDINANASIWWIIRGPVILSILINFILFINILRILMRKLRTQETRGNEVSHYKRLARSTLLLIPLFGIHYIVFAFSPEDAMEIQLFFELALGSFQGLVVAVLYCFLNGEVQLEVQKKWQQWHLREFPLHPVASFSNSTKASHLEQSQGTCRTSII
GLP1R, sequence (P43220 24-463): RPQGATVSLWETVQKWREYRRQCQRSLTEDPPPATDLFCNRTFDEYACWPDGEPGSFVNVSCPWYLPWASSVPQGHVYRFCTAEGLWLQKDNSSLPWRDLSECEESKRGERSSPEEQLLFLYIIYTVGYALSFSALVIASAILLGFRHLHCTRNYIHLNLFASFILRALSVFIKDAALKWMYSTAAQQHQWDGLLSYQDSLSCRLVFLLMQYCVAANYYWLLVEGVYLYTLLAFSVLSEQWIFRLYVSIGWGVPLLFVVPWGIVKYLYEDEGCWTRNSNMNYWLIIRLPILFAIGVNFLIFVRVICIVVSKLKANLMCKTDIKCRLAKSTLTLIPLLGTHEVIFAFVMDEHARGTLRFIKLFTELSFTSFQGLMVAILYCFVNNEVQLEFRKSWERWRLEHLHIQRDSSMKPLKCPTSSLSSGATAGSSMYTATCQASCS

`CC(C)C[C@H](NC(=O)[C@H](Cc1ccccc1)NC(=O)[C@H](CCCNC(=N)N)NC(=O)[C@H](CCC(N)=O)NC(=O)[C@@H](NC(=O)[C@H](C)NC(=O)[C@H](C)NC(=O)C(C)(C)NC(=O)[C@H](CCC(=O)O)NC(=O)[C@H](CCCCNC(=O)COCCOCCNC(=O)COCCOCCNC(=O)CC[C@H](NC(=O)CCCCCCCCCCCCCCCCCCC(=O)O)C(=O)O)NC(=O)[C@H](CC(C)C)NC(=O)[C@H](Cc1ccccc1)NC(=O)[C@H](CO)NC(=O)[C@@H](NC(=O)[C@H](CC(=O)O)NC(=O)[C@H](CO)NC(=O)[C@@H](NC(=O)[C@H](Cc1ccccc1)NC(=O)[C@@H](NC(=O)CNC(=O)[C@H](CCC(=O)O)NC(=O)C(C)(C)NC(=O)[C@@H](N)Cc1c[nH]cn1)[C@@H](C)O)[C@@H](C)O)C(C)C)[C@@H](C)O)C(=O)N[C@@H](CCC(=O)O)C(=O)N[C@@H](Cc1c[nH]cn1)C(=O)N[C@@H](CC(C)C)C(=O)N[C@H](C(N)=O)C(C)C` [compound 13] (H-H[Aib]EGTFTSDVSFLK([AEEA-AEEA-γGlu-C20 diacid])E[Aib]AATQRFLEHLV-NH2): the “Turbidity (pH 7)” value in series [1] is on record as 0.08. The Fibril formation in series [2] is listed as 16121. Besides, on GLP1R, the Selectivity is reported as 11130 and the EC50 is 0.0316 nM. The EC50 on SCTR was 316 nM.
Turning to `CC(C)C[C@H](NC(=O)[C@H](Cc1ccccc1)NC(=O)[C@H](CCCNC(=N)N)NC(=O)[C@H](CCC(N)=O)NC(=O)[C@H](CCC(N)=O)NC(=O)[C@H](C)NC(=O)[C@H](C)NC(=O)[C@H](CCC(=O)O)NC(=O)[C@H](CCC(=O)O)NC(=O)[C@H](CCCCNC(=O)COCCOCCNC(=O)COCCOCCNC(=O)CC[C@H](NC(=O)CCCCCCCCCCCCCCCCCCC(=O)O)C(=O)O)NC(=O)[C@H](CC(C)C)NC(=O)[C@H](CCC(=O)O)NC(=O)[C@H](CO)NC(=O)[C@@H](NC(=O)[C@H](CC(=O)O)NC(=O)[C@H](CO)NC(=O)[C@@H](NC(=O)[C@H](Cc1ccccc1)NC(=O)[C@@H](NC(=O)CNC(=O)[C@H](CCC(=O)O)NC(=O)C(C)(C)NC(=O)[C@@H](N)Cc1c[nH]cn1)[C@@H](C)O)[C@@H](C)O)C(C)C)C(=O)N[C@@H](CCC(=O)O)C(=O)N[C@@H](Cc1c[nH]cn1)C(=O)N[C@@H](CC(C)C)C(=O)N[C@H](C(N)=O)C(C)C` [compound 14] (H-H[Aib]EGTFTSDVSELK([AEEA-AEEA-γGlu-C20 diacid])EEAAQQRFLEHLV-NH2), the “Turbidity (pH 7)” value in series [1] is given as 0.08. The compound also registered a Fibril formation in series [2] of 10247. Also, on GLP1R, the Selectivity amounted to 9917 and the EC50 was 0.02 nM. At SCTR, the EC50 was 200 nM.
The matching figures for `CC(C)C[C@H](NC(=O)[C@H](Cc1ccccc1)NC(=O)[C@H](CCCNC(=N)N)NC(=O)[C@H](CCC(N)=O)NC(=O)[C@H](C)NC(=O)[C@H](C)NC(=O)[C@H](C)NC(=O)C(C)(C)NC(=O)[C@H](CCC(=O)O)NC(=O)[C@H](CCCCNC(=O)COCCOCCNC(=O)COCCOCCNC(=O)CC[C@H](NC(=O)CCCCCCCCCCCCCCCCCCC(=O)O)C(=O)O)NC(=O)[C@H](CC(C)C)NC(=O)[C@@H](NC(=O)[C@H](CO)NC(=O)[C@@H](NC(=O)[C@H](CC(=O)O)NC(=O)[C@H](CO)NC(=O)[C@@H](NC(=O)[C@H](Cc1ccccc1)NC(=O)[C@@H](NC(=O)CNC(=O)[C@H](CCC(=O)O)NC(=O)C(C)(C)NC(=O)[C@@H](N)Cc1c[nH]cn1)[C@@H](C)O)[C@@H](C)O)C(C)C)C(C)C)C(=O)N[C@@H](CCC(=O)O)C(=O)N[C@@H](Cc1c[nH]cn1)C(=O)N[C@@H](CC(C)C)C(=O)N[C@H](C(N)=O)C(C)C` [compound 15] (H-H[Aib]EGTFTSDVSVLK([AEEA-AEEA-γGlu-C20 diacid])E[Aib]AAAQRFLEHLV-NH2): 0.09, 12385, 3961, 0.0794 nM and 316 nM.
